Data: the supplement of paper PMC10307832

Tests used:
[1] = compound: C1=CC2=C(C=C(C(=C2N=C1)O)N=NC3=CC4=C(C=C3)C=C(C=C4)S(=O)(=O)O)S(=O)(=O)O + CC(=O)Nc1cccc(-n2c(=O)n(C3CC3)c(=O)c3c(Nc4ccc(I)cc4F)n(C)c(=O)c(C)c32)c1 [Trametinib] (partner 0.02 µM); assay: relative viability (nuclei count vs DMSO), 5 days (fraction); higher = more cells survive
In short: (§1)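 Relative viability was taken as the ratio of nuclei in treated wells to nuclei in vehicle wells. Lung cancer cell lines in 1536-well plates received compounds by pin tool one day after seeding, either one drug alone or a fixed anchor-drug dose plus five library-drug doses (not always all listed) in √10 steps. Nuclei were counted on 4× images after 5 days of treatment, and values are medians of duplicate plates.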

[2] = compound: C1=CC2=C(C=C(C(=C2N=C1)O)N=NC3=CC4=C(C=C3)C=C(C=C4)S(=O)(=O)O)S(=O)(=O)O + NC(=O)Nc1cc(-c2cccc(F)c2)sc1C(=O)N[C@H]1CCCNC1 [AZD7762] (partner 0.2 µM); assay: as above
In short: as §1

Row | Cell Line | relative viability ([1]; first compound 0.08 µM) | relative viability ([1]; first compound 0.253 µM) | relative viability ([1]; first compound 0.8 µM) | relative viability ([1]; first compound 2.53 µM) | relative viability ([1]; first compound 8 µM) | relative viability ([2]; first compound 0.08 µM) | relative viability ([2]; first compound 0.253 µM) | relative viability ([2]; first compound 0.8 µM) | relative viability ([2]; first compound 2.53 µM) | relative viability ([2]; first compound 8 µM)
1 | 201T | 0.721 | 0.731 | 0.713 | 0.709 | 0.693 | 0.691 | 0.652 | 0.56 | 0.632 | 0.634
2 | A-427 | 0.721 | 0.719 | 0.718 | 0.781 | 0.732 | 0.823 | 0.816 | 0.767 | 0.822 | 0.743
3 | ABC-1 |  |  |  |  |  | 0.741 |  | 0.831 | 0.691 | 0.667
4 | BEN | 1.1 | 1.1 | 0.948 | 1.07 | 1.05 | 0.694 | 0.749 | 0.729 | 0.77 | 0.557
5 | CAL-12T | 0.369 | 0.332 | 0.318 | 0.332 | 0.28 | 0.621 | 0.6 | 0.61 | 0.635 | 0.601
6 | COR-L23 | 0.669 | 0.604 | 0.609 | 0.556 | 0.611 |  |  |  |  | 
7 | COR-L 105 | 0.514 | 0.437 | 0.469 | 0.48 | 0.476 |  |  |  |  | 
8 | ChaGo-K-1 | 0.983 | 0.908 | 0.938 | 0.875 | 0.798 | 0.933 | 0.82 | 0.845 | 0.892 | 0.721
9 | EKVX | 0.346 | 0.305 | 0.37 | 0.341 | 0.332 | 0.836 | 0.78 | 0.61 | 0.702 | 0.702
10 | EMC-BAC-2 | 0.964 | 0.853 | 0.912 | 0.997 | 0.911 | 1.04 | 1.1 | 1.09 | 1.14 | 0.995
11 | EPLC-272H | 0.358 | 0.276 | 0.277 | 0.287 | 0.282 | 0.204 | 0.212 | 0.177 | 0.311 | 0.177
12 | H3255 | 0.588 | 0.614 | 0.66 | 0.654 | 0.624 | 0.893 | 0.881 | 0.89 | 0.939 | 0.899
13 | HARA | 0.878 | 0.442 | 0.869 | 0.82 | 0.532 | 0.384 | 0.261 | 0.267 | 0.362 | 0.469
14 | HCC-15 | 0.427 | 0.387 | 0.428 | 0.377 | 0.365 | 1.32 | 1.25 | 1.23 | 1.18 | 1.15
15 | HCC-44 | 1.04 | 1.01 | 1.09 | 1.04 | 0.797 | 1.01 | 1.03 | 0.997 | 1.05 | 1.04
16 | HCC-78 | 0.804 | 0.724 | 0.813 | 0.712 | 0.675 | 0.725 | 0.628 | 0.675 | 0.657 | 0.591
17 | HCC-366 | 0.402 | 0.342 | 0.398 | 0.432 | 0.302 | 0.291 | 0.273 | 0.26 | 0.272 | 0.291
18 | HCC-827 | 0.505 | 0.521 | 0.524 | 0.524 | 0.578 | 0.184 | 0.279 | 0.235 | 0.192 | 0.246
